In patent publication US11506670B2, “Method of genome-wide direct identification of electrophile-sensing targets” (Cornell University, priority 2018, dated 2022):

Assays:
Nrf2-AR pathway = experiment: Flow cytometry ARE-GFP reporter assay; type: cell-based, human
Experimental: (i) Transient transfection using TransIT-2020. Perform the transfection as described in Step 40 Option (C) (i). Briefly: Transfect the cells with ARE:GFP, pFN21a-Halo-Keap1, and pcDNA3.1 myc-Nrf2 in a 3:1:1 ratio by mass. For transient transfection of cells in a single well of a 48-well plate, in 26 μL of antibiotic-free, serum-free media add 156 ng of ARE:GFP, 52 ng of pFN21a-Halo-TEV-Keap1, and 52 ng of pcDNA3.1 myc-Nrf2 (260 ng total) followed by the addition of 0.78 μL of TransIT-2020. The lipoplex is mixed gently and incubated at room temperature for 20 min.
(iv) Treatment of cells with T-REX™ delivery photocaged precursor and photo-uncaging (TIMING: 7 hours). […]
In this flow cytometry assay, live cells are first gated by forward (size) and side scatter to give a general population of healthy cells (FIG. 26A). […] Analyzing this scatter group for green fluorescence (AR reporter) told a slightly different story to that painted by previous ensemble experiments (Parvez et al., “Substoichiometric Hydroxynonenylation of a Single Protein Recapitulates Whole-Cell-Stimulated Antioxidant Response,” J. Am. Chem. Soc. 137:10-13 (2015); Lin et al., “A Generalizable Platform for Interrogating Target- and Signal-Specific Consequences of Electrophilic Modifications in Redox-Dependent Cell Signaling,” J. Am. Chem. Soc. 137:6232-44 (2015), which are hereby incorporated by reference in their entirety).

[1] = system: ten HaloTag proteins in HEK-293 cells; experiment: T-REX gel-based screen of Halo ORF clones for HNE-sensitive targets; type: cell-based
Experimental: Individual wells in a 48-well plate contained live HEK-293 cells ectopically expressing a unique HaloTagged gene of interest. The cells were subjected to T-REX™ delivery-HNE(alkyne) targeting on demand. Post cell lysis, all samples were treated with TEV protease and subsequently subjected to Click coupling reaction with Cy5 azide. Probing with Halo antibody allowed evaluation of expression level (and/or solubility under the lysis conditions used). […] For example, RRM1, PRKCD, p53R2, and Keap1 (positive control) had roughly similar expression levels. Only RRM1 and Keap1 were HNE-sensitive although all four targets have been previously identified to be potentially redox/HNE-sensitive (Holmstrom et al., “Cellular Mechanisms and Physiological Consequences of Redox-Dependent Signalling,” Nat. Rev. Mol. Cell. Biol. 15:411-21 (2014); Jacobs et al., “Systems Analysis of Protein Modification and Cellular Responses Induced by Electrophile Stress,” Acc. Chem. Res. 43:673-83 (2010); Delmastro-Greenwood et al., “Redox-Dependent Anti-Inflammatory Signaling Actions of Unsaturated Fatty Acids,” Annu. Rev. Physiol. 76:79-105 (2014); Crunkhorn S., “Deal Watch: Abbott Boosts Investment in NRF2 Activators for Reducing Oxidative Stress,” Nat. Rev. Drug Discov. […]

## CCCCCC(O)/C=C/C=O (stereo not drawn) [HNE, 4-hydroxynonenal]
Nrf2-AR pathway; T-REX delivery on Halo-Keap1
  AR-driven GFP signal: increase in AR in all but cells with the highest basal AR
Nrf2-AR pathway; whole-cell HNE treatment
  AR-driven GFP signal: strongly increases AR in a subset of cells
[1]
  proteins modified by HNE in the screen besides positive control Keap1: RRM1 and HSPB7
